Patent US20200230126A1, “TARGETED THERAPEUTICS” (TARVEDA THERAPEUTICS, INC., priority 2017, published 2020)

Assays:
Type in all cases: physicochemical
[1] = Solubility at various pH in 0.9% Sodium Chloride (HCl addition, about 24 hours equilibration, 0.2 μm filtration); parameters: key to appearance: Conforms = clear and essentially free of visible particles; conditions: 0.9% Saline
Procedure: (§1) Experiments were performed to assess the solubility of SDC-TRAP-0063 Sodium as a function of varying pH.

[2] = Head-to-head in-use test, 5% Mannitol dosing solution in IV bag, syringe and IV line with rocking
Procedure: (§2) A head-to-head in-use test of the SDC-TRAP-0063 Sodium 0.9% Sodium Chloride and 5% Mannitol dosing solutions was conducted. This study was intended to directly compare the two based on the specific clinical use direction for each diluent. In this study, the respective IV bags, syringes and IV lines were subjected to a rocking motion during the hold periods to mimic a worst case scenario for agitation of the dosing solution.
The 5% Mannitol dosing solution was tested in a syringe and IV line as designed for use in the clinic with the addition of continuous rocking to simulate a worst case for agitation of the samples (Table 6). This dosing solution was tested at the limits of intended concentrations of 3 mg/mL and 12 mg/mL of SDC-TRAP-0063 Sodium and with a 2 hour hold period in the IV bag, a 6 hour hold period in the syringe and IV line and a 2-hour simulated infusion to exceed the planned clinical timeframes.

[3] = Head-to-head in-use test, 0.9% Sodium Chloride dosing solution in IV bag and IV line with rocking; parameters: key to appearance: Conforms = clear and essentially free of visible particles; conditions: for appearance: 0.6 mg/mL in Sodium Chloride
Procedure: as §2
The 0.9% Sodium Chloride dosing solution was tested in an IV bag and IV line and at 0.6 mg/mL of SDC-TRAP-0063 Sodium as used in the clinic during the product complaint, with a designed 4 hour hold period followed by a 2-hour simulated infusion using a peristaltic pump (Table 5).

[4] = pH of reconstituted solution and dosing solutions
Procedure: The reconstituted solution of SDC-TRAP-0063 Sodium has a pH of about 10.0. This solution is diluted to the target dose in 5% Mannitol, USP. The pH of the infusion solution depends on the concentration of SDC-TRAP-0063 Sodium in the diluted infusion solution. Across the dose ranges employed in the clinical study protocol, the volume of the diluted infusion solution administered will range from 50 to 500 mL, and the pH will range from 8.1 to 9.6. In order to reduce the potential risks of injection site pain and/or damage to the venous endothelium during IV administration, a central venous access line is used for administration of the diluted SDC-TRAP-0063 Sodium.
A new, more robust and patient-friendly formulation of dosing solution was developed. During this development, it was established that the pH of the dosing solution is driven by the concentration of SDC-TRAP-0063 Sodium and increasing the SDC-TRAP-0063 Sodium concentration allows better control of the solubility and pH of dosing solutions.
It is believed that a common ion effect is decreasing the solubility of SDC-TRAP-0063 Sodium in 0.9% Sodium Chloride solution.

[5] = Solubility at various pH in 5% Mannitol (HCl addition, about 24 hours equilibration, 0.2 μm filtration); parameters: key to appearance: Conforms = clear and essentially free of visible particles
Procedure: as §1

[6] = In-use stability study of dosing solutions in 5% Mannitol (mixing container, syringe pump, administration set)
Procedure: In this study, SDC-TRAP-0063 sodium was dissolved in 5% Mannitol within the concentration range of 3-12 mg/mL. The stabilities of the SDC-TRAP-0063/Mannitol solution in an infusion container and during administration via a syringe pump were studied.
Dosing solutions of 3, 6 and 12 mg/mL of SDC-TRAP-0063 Na were prepared in 250 mL Intravia mixing containers. Pre-determined numbers of vials of SDC-TRAP-0063 Na were re-constituted with WFI and SDC-TRAP-0063 Na was transferred into mixing containers containing 5% mannitol. Each preparation was performed in duplicate.
An in-use test was performed to simulate the clinical infusion process. Freshly prepared dosing solutions were withdrawn from the Intravia containers with the specified syringe size and volume, plus an additional 2 mL for flushing the administration set. The volume of the IV administration set is O.7 mL; the 2 mL flush volume was selected according to standard pharmacy practice. After the administration set was flushed, the syringe was placed on a syringe pump and held at room temperature for 4 hours followed by a 2-hour infusion process. For the 15 mg dose level the simulation infusion was for 1 hour, because the minimal infusion rate specified by clinic was not less than 5 mL/hour. Samples were collected from the mixing containers at T0 and T2 hours and from the administration sets at T0 and from the bulk container at the end of infusion, at T5 hours for 15 mg sample and at T6 hours for all other samples, as outlined in Table 8.
A flexible bracketing design, intended to cover possible syringe volumes from 10 to 60 mL of nominal volumes, possible variation of the syringe fill volumes from 10 to 75% of the nominal syringe volume and concentration ranges of the dosing solutions from 3 to 12 mg/ml was executed in this study. The maximum fill volume for each syringe is limited to 75% of the nominal volume.

[7] = 0 molar percent HCl added, pH 9.9
[8] = 8.1 molar percent HCl added, pH 9.6
[9] = 14.4 molar percent HCl added, pH 9.1
[10] = 33.1 molar percent HCl added, pH 8.7
[11] = 35.5 molar percent HCl added, pH 8.7

Which results are given for `CCc1c2c(nc3ccc(OC(=O)N4CCC(CCn5ccc6cc(-n7c(O)nnc7-c7cc(C(C)C)c(O)cc7O)ccc65)CC4)cc13)-c1cc([C@@](O)(CC)C(=O)[O-])c(CO)c(=O)n1C2.[Na+]` [SDC-TRAP-0063 Sodium, Sodium (S)-2-(2-((4-(2-(5-(3-(2,4-dihydroxy-5-isopropylphenyl)-5-hydroxy-4H-1,2,4-triazol-4-yl)-1H-indol-1-yl)ethyl)piperidine-1-carbonyl)oxy)-12-ethyl-8-(hydroxymethyl)-9-oxo-9,11-dihydroindolizino[1,2-b]quinolin-7-yl)-2-hydroxybutanoate]?
SDC-TRAP-0063 Sodium concentration in the solution [1, 7]: 22.9 mg/mL; appearance [1, 7]: Conforms^1; SDC-TRAP-0063 Sodium concentration in the solution [1, 8]: 23.4 mg/mL; appearance [1, 8]: Slightly hazy solution; SDC-TRAP-0063 Sodium concentration in the solution [1, 9]: 21.4 mg/mL; appearance [1, 9]: Slightly hazy solution; SDC-TRAP-0063 Sodium concentration in the solution [1, 10]: 18.6 mg/mL; appearance [1, 10]: Slightly hazy solution; appearance ([1]; 33.1 molar percent HCl added, pH 8.7, after 1 hour): gelation after 1 hour; SDC-TRAP-0063 Sodium concentration in the solution [1, 11]: 13.7 mg/mL; appearance [1, 11]: Slightly hazy solution; appearance ([1]; 35.5 molar percent HCl added, pH 8.7, after 1 hour): gelation after 1 hour; precipitation ([2]; 3 mg/mL and 12 mg/mL, all time points, continuous rocking): no precipitation was observed at any time point; Recovery of SDC-TRAP-0063 Sodium (Calculated vs. Initial concentration) ([2]; 3 mg/mL, Bulk solution, 8 hours (6 + 2 infusion)): 98.0%; Recovery of SDC-TRAP-0063 Sodium (Calculated vs. Initial concentration) ([2]; 3 mg/mL, IV bag, 0 hours): 100.0%; Recovery of SDC-TRAP-0063 Sodium (Calculated vs. Initial concentration) ([2]; 3 mg/mL, IV bag, 2 hours): 102.5%; Recovery of SDC-TRAP-0063 Sodium (Calculated vs. Initial concentration) ([2]; 3 mg/mL, IV line (infusion end), 8 hours (6 + 2 infusion)): 98.7%; Recovery of SDC-TRAP-0063 Sodium (Calculated vs. Initial concentration) ([2]; 3 mg/mL, IV line (infusion start), 6 hours, low volume in syringe, complete sample not obtained): 93.5%^1; Recovery of SDC-TRAP-0063 Sodium (Calculated vs. Initial concentration) ([2]; 3 mg/mL, IV line, 0 hours): 97.2%; Recovery of SDC-TRAP-0063 Sodium (Calculated vs. Initial concentration) ([2]; 12 mg/mL, Bulk solution, 8 hours (6 + 2 infusion)): 105.4%; Recovery of SDC-TRAP-0063 Sodium (Calculated vs. Initial concentration) ([2]; 12 mg/mL, IV bag, 0 hours): 100.0%; Recovery of SDC-TRAP-0063 Sodium (Calculated vs. Initial concentration) ([2]; 12 mg/mL, IV bag, 2 hours): 103.9%; Recovery of SDC-TRAP-0063 Sodium (Calculated vs. Initial concentration) ([2]; 12 mg/mL, IV line (infusion end), 8 hours (6 + 2 infusion)): 104.3%; Recovery of SDC-TRAP-0063 Sodium (Calculated vs. Initial concentration) ([2]; 12 mg/mL, IV line (infusion start), 6 hours): 101.6%; Recovery of SDC-TRAP-0063 Sodium (Calculated vs. Initial concentration) ([2]; 12 mg/mL, IV line, 0 hours): 103.6%; termination of the simulated infusion after onset due to occlusion of the in-line filter ([3]; 0.6 mg/mL in 0.9% Sodium Chloride, 2-hour simulated infusion, peristaltic pump): ≤ 1 h; precipitation during the hold period ([3]; 0.6 mg/mL in 0.9% Sodium Chloride, 4 hour hold period, rocking): Precipitation was observed in both the IV bag and IV line; appearance ([3]; Bulk solution, at termination, collected after in line filter): Conforms^1; appearance ([3]; Drip Chamber of the IV Administration set, less than 1 hour (infusion terminated)): Hazy with fine floating; appearance ([3]; IV Administration set, 0 hours, collected after in line filter): Conforms^1; appearance ([3]; IV bag, 0 hours): Conforms^1; appearance ([3]; IV bag, 2 hours): Slightly hazy solution; appearance ([3]; IV bag, 4 hours, collected after in line filter): Conforms^1; pH observed for dosing solutions ([4]; 0.9% Sodium chloride): 8.6-8.7; pH range observed for dosing solutions ([4]; 5% Mannitol): 9.4-10.2; observed pH for all dosing solutions ([4]; 5% Mannitol, concentrations from 3-12 mg/mL): ≥ 9.4; appearance ([5]; 0 molar percent HCl added, pH 10.1): Conforms^2; SDC-TRAP-0063 Sodium concentration in the solution ([5]; 0 molar percent HCl added, pH 10.1, after 24 hours of rocking, starting 23.6 mg/mL): >23.6 (after mg/mL; SDC-TRAP-0063 Sodium concentration in the solution ([5]; 10.5 molar percent HCl added, pH 9.9): >23.5 mg/mL; SDC-TRAP-0063 Sodium concentration in the solution ([5]; 18.2 molar percent HCl added, pH 9.9): >23.3 mg/mL; SDC-TRAP-0063 Sodium concentration in the solution ([5]; 33.1 molar percent HCl added, pH 9.1): 20.2 mg/mL; SDC-TRAP-0063 Sodium concentration in the solution ([5]; 35.5 molar percent HCl added, pH 9.4): 20.9 mg/mL; precipitation ([5]; maximum concentration of 12 mg/mL): does not result in precipitation; total impurities ([6]; 2-hour storage in mixing containers and total of 6 hours simulated hold and infusion (5 hours for 15 mg dose)): within the acceptable ranges; HPLC assay values ([6]; 3, 6 and 12 mg/mL, samples collected during the study): did not show any trends and were within expected ranges; appearance of test samples ([6]; 3, 6 and 12 mg/mL, up to 6 hours): clear solutions essentially free of particles; in-use stability profile ([6]; concentration range of 3-12 mg/mL): acceptable stability profile
